The values that follow come from patent publication US10662153B2 (The University of Toledo, priority 2016, dated 2020).

Data set [1] relates to PPARα OE 3T3-L1 cells. The experiment in a line: Endogenous PPARα gene regulatory activity in 3T3-L1 cells (Real-time PCR). It counts as cell-based, mouse. As to conditions: 50 μM, 24 hours, dialyzed fatty acid-free media. Here is the method:
(§1) (FIG. 4D.) RNA was extracted and mRNA expression was measured by Real-time PCR.
(§2) To establish a 3T3-L1 or Hepa1c1c7 cell line that have PPARα stably overexpressed, mouse PPARα cDNA was ligated into the NotI/BamHI sites of the pQXCIP vector and transformed in DH5α cells (Invitrogen, Carlsbad, Calif.). […] The supernatants were harvested, and the cell debris was removed by centrifugation at 2000×g. The supernatant was used to infect 3T3-L1 or Hepa1c1c7 cells after addition of polybrene ([…], Sigma Chemical Co., St. Louis, Mo.) to establish cell lines with stable overexpression of a PPARα overexpressing (3T3-PPARα) or expressing empty vector (3T3-Vector). After 72 h the cells were selected with puromycin, and positive cells were confirmed by Western blotting and used for experiments.

In data set [2] the test system is hepa1c1c7 mouse hepatocytes overexpressing PPARα. Kind of data set: PPARα controlled genes in hepa1c1c7 liver cells (Real-time PCR). Type of data set: cell-based. As to conditions: 50 μM, 24 hours, dialyzed fatty acid-free media. The protocol: as §1, §2
(In qPCR the cycle at which signal appears reflects the starting amount.)

Data set [3] deals with 3T3-L1 cells. The experiment in a line: Adipogenesis assay (Nile Red lipid accumulation, Real-time PCR). Type of data set: cell-based, mouse.
Method: Total RNA was read on a NanoDrop 2000® spectrophotometer (Thermo Fisher Scientific, Wilmington, Del.), and cDNA was synthesized using High Capacity cDNA Reverse Transcription Kit (Applied Biosystems). PCR amplification of the cDNA was performed by quantitative real-time PCR using TrueAmp® SYBR Green qPCR SuperMix (Advance Bioscience). The thermocycling protocol consisted of 10 min at 95° C., 40 cycles of 15 sec at 95° C., 30 sec at 60° C., and 20 sec at 72° C., and finished with a melting curve ranging from 60-95° C. to allow distinction of specific products. Normalization was performed in separate reactions with primers to GAPDH.
Adipogenic differentiation of 3T3-L1 cells was achieved by treatment with 1 μM Dex, 830 nM insulin, and 100 μM isobutylmethylxanthine in 10% FBS until Day 9. Upon differentiation, cells were stained with Nile Red to visualize lipid content, and densitometry was used as a direct measure. Total RNA extracted from Nile Red stained cells was used for real time PCR analysis.
The format of data set [4] is physicochemical. From the text: (§3) This was to help increase the solubility of bilirubin in solution. […] Bilirubin was purchased commercially from Frontier Scientific.
Data set [5] deals with T1, PPARα (Mus musculus, UniProt P23204).
T1 sequence (P23204 1-468): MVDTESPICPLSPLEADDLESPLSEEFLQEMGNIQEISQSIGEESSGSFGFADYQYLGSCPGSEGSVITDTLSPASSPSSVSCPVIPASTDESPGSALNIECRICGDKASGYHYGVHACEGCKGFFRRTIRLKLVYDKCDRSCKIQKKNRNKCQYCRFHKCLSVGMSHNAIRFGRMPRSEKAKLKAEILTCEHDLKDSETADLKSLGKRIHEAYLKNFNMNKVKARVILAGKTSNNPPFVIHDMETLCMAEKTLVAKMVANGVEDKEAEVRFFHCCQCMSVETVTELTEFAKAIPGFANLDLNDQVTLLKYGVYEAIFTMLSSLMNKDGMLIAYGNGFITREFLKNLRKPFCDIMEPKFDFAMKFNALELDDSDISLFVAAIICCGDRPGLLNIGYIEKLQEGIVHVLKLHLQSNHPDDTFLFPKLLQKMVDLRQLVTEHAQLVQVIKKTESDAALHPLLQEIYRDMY
The experiment in a line: Pull-down assay with ligand-coupled sepharose resins, PPARα OE 3T3-L1 cells. Also noted: expressed in transfected cells. As to conditions: ligand coupled to sepharose beads. It counts as binding. The protocol: The ligand coupling was performed according to the GE Healthcare instructions (71-7097-00 AE, pg. 6) for EAH Sepharose™ 4B. The procedure in the online instructions was titled “A general ligand coupling procedure”. […] Resin coupling procedures were conducted in a DMF/H2O solvent system (1:1) with a final concentration of 0.1 M EDC*HCl. […] Upon completion, resins were washed according to the GE instructions (3 alternating washings with 0.5 M NaCl containing 0.1 M sodium acetate pH 4.5 and 0.5 M NaCl containing 0.1 M Tris pH 8) over a 10-15 μm fritted filter. As an additional step to the GE instructions, matrix-coupled bilirubin and biliverdin coupled preparations were further washed with 50% DMSO/H2O solutions (250 mL) to remove any unreacted ligand. The filtrate was nearly colorless after this step. […] The resins were suspended in 20% EtOH/H2O (15 mL) and stored at 4° C. for 16 h in capped sample vials. The ligand-coupled resin settles overnight and the supernatant was carefully decanted until minimal amounts of 20% EtOH/H2O covered the resin. […]
Whole cell extracts (WCE) were prepared by freezing the cell pellet overnight at −80° C. […] Immunoreactivity was visualized and quantified by infrared scanning in the Odyssey system (LI-COR Biosciences). […]

The target of data set [6] is T1, PPARα. The experiment in a line: Promoter reporter assay (PPRE-3tk-luc luciferase) in Cos7 cells. Conditions: for level of PPARα activation compared among the ligands / PPARα activity at the minimal luciferase promoter: PPARα overexpressed, 50 μM each; for level of PPARα activation compared among the ligands: 24 hours (FIG. 3C); for PPARα activity at the minimal luciferase promoter: vs Veh (FIG. 3C). On the technique in general: Reporter assays use an easily measured gene product as a stand-in for the process of interest.
Method: Cos7 cells were transiently transfected with a minimal PPARα responsive promoter luciferase construct (PPRE-3tk-luc) for 24 hours along with an empty vector and a vector containing PPARα cDNA (overexpression).
The mouse 3T3-L1 preadipocyte, Hepa1c1c7, and Cos7 green kidney monkey cells were routinely cultured and maintained in Dulbecco's Modified Eagles's Medium (DMEM) containing 10% bovine calf serum or FBS with 1% penicillin-streptomycin.
A PPARα minimal promoter PPRE-3tk-luc activity was measured by luciferase, and pRL-CMV Renilla reporter for normalization to transfection efficiency. Transient transfection was achieved using GeneFect® (Alkali Scientific, Inc.). Twenty-four-hour post-transfected cells were lysed and the luciferase assay was performed using the Promega® dual luciferase assay system (Promega, Madison, Wis.).

The nature of data set [7]: Stability on heating during resin preparation. It counts as physicochemical. As to conditions: 75° C. for 90 min in DMF/H2O; judged by decrease in PPARα binding of resin.
Text: as §3

Data set [8] relates to wild-type mice on a high fat diet. Conditions: mouse, in vivo.
Method: (§4) With respect to animals, the procedures and protocols conform to the National Institutes of Health Guide for the Care and Use of Laboratory Animals, and were approved by the Institutional Animal Care and Use Committee of the University of Mississippi Medical Center. Tests were performed on 16 week old male PPARα knockout and wild-type mice on a C57 genetic background purchased from Jackson Labs (Bar Harbor, Me.). […] After this time, mice were switched to a 60% high fat diet (diet # D12492, Research Diets, Inc., New Brunswick, N.J.) for an additional 6 weeks. […] Control mice were not treated. Mice were euthanized on the last day of the test, at which time all organs were collected and weighed.
(§5) Following an 8 hour fast, a blood sample was obtained via orbital sinus under isoflorane anesthesia.
(§6) Plasma samples from individual mice were measured in duplicate and then averaged. The concentrations are expressed as mg/dL Plasma alanine aminotransferase (ALT) and aspartate aminotransferase (AST) levels were determined in 50 μL of plasma by colorimetric assay (Cobas, Rochce Diagnostics, Indianapolis, Ind.). Assays were performed according to the manufacturer's guidelines and samples were read on a Roche Cobas c501 analyzer. The concentrations were expressed as units/L.
In data set [9] the test system is PPARα KO mice on a high fat diet. Conditions: mouse, in vivo.
Method: as §4, §5, §6
The test system is the same in data set [10]. The experiment in a line: High fat diet PPARα KO mice treated for seven days. As to conditions: bilirubin 30 mg/kg or fenofibrate 90 mg/kg i.p.
Method: as §4, §5, §6
The mark [11] stands for this setting: 10 μM, differentiated 3T3-L1 adipocytes.

As for `Cc1cccc(Nc2cc(Cl)nc(SCC(=O)O)n2)c1C` [WY 14,643], in [1], the “CD36 mRNA expression” value is “strongly induced expression”. In data set [2], the “CD36 mRNA” value is reported as “responded”, the “CYP4A10 mRNA” value was “responded”, the “FGF21 mRNA response” value is listed as “not” and the “Pyruvate dehydrogenase kinase 4 (PDK4) expression” value is listed as “significantly (p<0.05) higher”. For the same compound, in data set [2], the “angiopoietin-like 4 (ANGPTL4) expression” value is “significantly increased” and the “heme oxygenase-1 (HO-1) mRNA response” value is “not”. The “reduction of lipid accumulation” value in [3] (10 μM over the 9 day protocol) turned out to be 56%. Besides, the “expression of FAS” value in data set [3] (setting [11]) is on record as “significantly (p<0.001) decreased expression of FAS”. For the same compound, the “reduction of lipid accumulation” value in data set [3] (50 μM over the 9 day protocol) is reported as 33%. Further, in data set [4], the “solubility in organic solvents” value is “readily soluble”. Moreover, in data set [5], the “direct binding to PPARα (pull-down)” value is listed as “can directly bind”. Moreover, in data set [6] (Cos7 cells transfected with PPARα and RXR, 50 μM, 24 hrs (FIG. 12)), the “induction of PPARα activity” value came out at 2.1 fold. For the same compound, the “level of PPARα activation compared among the ligands” value in data set [6] (Cos7 cells) was “higher than biliverdin or fenofibrate”. Moreover, the “PPARα activity at the minimal luciferase promoter” value in data set [6] (Cos7 cells, 24 hours) was “significantly (p<0.0001) increased”.
Consider `C=CC1=C(C)/C(=C/c2[nH]c(Cc3[nH]c(/C=C4\NC(=O)C(C)=C4C=C)c(C)c3CCC(=O)O)c(CCC(=O)O)c2C)NC1=O` [bilirubin], for which, in [4], the “solubility in organic solvents” value was “limited solubility”. In data set [7], the stability with heating entry is given as “less stable with heating”. Also, in data set [8], the “alanine aminotransferase (ALT)” value is recorded as “no change” and the “aspartate aminotransferase (AST)” value is “no change”. Moreover, in data set [9], the “alanine aminotransferase (ALT)” value is “significantly (p<0.05) decreased” and the “aspartate aminotransferase (AST)” value was “significantly (p<0.05) decreased”. In data set [10], the body weight result is recorded as “no effect”.
For the compound `C=CC1=C(C)/C(=C/C2=NC(=C\c3[nH]c(/C=C4\NC(=O)C(C)=C4C=C)c(C)c3CCC(=O)O)/C(CCC(=O)O)=C2C)NC1=O` [biliverdin], in data set [1], the “CD36 mRNA expression” value was “significantly (p<0.05) increased CD36 mRNA expression more than fenofibrate”; the CPT1 expression entry is “increased CPT1 and FGF21 expression more than WY 14,643 treatment”; the “FGF21 mRNA expression” value is on record as “significantly (p<0.05) enhanced FGF21 mRNA higher than fenofibrate”. In addition, in [2], the “CD36 mRNA” value was “not”, the “CYP4A10 mRNA” value was “not”, the “FGF21 mRNA response” value is listed as “increased” and the “Pyruvate dehydrogenase kinase 4 (PDK4) expression” value was “increased with all the ligands”. Moreover, in [2], the “angiopoietin-like 4 (ANGPTL4) expression” value is reported as “significantly increased” and the “heme oxygenase-1 (HO-1) mRNA response” value is given as “increased”. Further, the “reduction of lipid accumulation” value in [3] (10 μM over the 9 day protocol) is 50%. The “reduction of lipid accumulation” value in data set [3] (10 μM over the 9 day protocol, listed as Biliverdin) is on record as 49%. Further, in data set [3] (setting [11]), the “expression of CPT1” value was “significantly (p<0.001) increased expression of CPT1” and the “expression of FAS” value was “significantly (p<0.001) decreased expression of FAS”. For the same compound, the “reduction of lipid accumulation” value in data set [3] (50 μM over the 9 day protocol) is given as 91%. In addition, in data set [4], the “solubility in organic solvents” value is listed as “readily soluble” and the water solubility result was “greater water solubility than bilirubin”. In addition, the “level of PPARα activation compared among the ligands” value in data set [6] (Cos7 cells) is on record as “same level of PPARα activation”. Besides, the “PPARα activity at the minimal luciferase promoter” value in data set [6] (Cos7 cells, 24 hours) is reported as “significantly (p<0.0001) increased”. The “PPARα activity (PPRE-3tk-luc)” value in [6] (Cos7 cells, PPARα overexpression, dose dependence, 24 hours, vs 0 μM) is reported as “significantly (p<0.05) increased”. Also, in data set [6] (Cos7 cells, empty vector, dose dependence, 24 hours), the “PPRE-3tk-luc promoter activation in the absence of PPARα” value is reported as “did not activate”.
For the compound `CC(C)OC(=O)C(C)(C)Oc1ccc(C(=O)c2ccc(Cl)cc2)cc1` [fenofibrate], the “reduction of lipid accumulation” value in data set [3] (10 μM over the 9 day protocol) is on record as 48%; in data set [3] (50 μM over the 9 day protocol), 51%.
